In assay [1] the target is T1, BRD4 (Homo sapiens (Human), UniProt O60885). The assay is described as follows: BRD4 degradation assay in PC3 (Steap-1) prostate cancer cells, high content fluorescence imaging. In kind it is cell-based. As to conditions: PC3 (Steap-1) cells, 4 hours; for DC50: BRD4 immunofluorescence, read-out: PC3 (Steap-1) EC50; for PC3 (Steap-1) Sinf (%): maximum degradation, percent change in protein level (-100% = complete loss). On the procedure:
(§1) PC3 (Steap-1) prostate cancer cells: PC3 (Steap-1) prostate cancer cells (PC3 cells overexpressing the surface protein Steap-1) were seeded on day 1 at a density of 200,000 cells/mL in 45 μl/well in cell plates in a 384 well Greiner/Perkin Elmer Cell Carrier TC Treated plate (part #6007430) in Assay Medium (RPMI, 10% FBS, 2 mM Glutamax). Cells were incubated overnight at 37° C. degrees. On day 2, compounds were serially diluted 3-fold in DMSO spanning the concentrations 10 mM to 8.6 nM, in 384 well clear polypropylene plates (Greiner Cat #781201). DMSO and 10 mM of a control PROTAC (dBET1, as described in WO 2017/024317, p. 235, structure below) (control compound) were added to designated wells. Compounds and controls were diluted 50-fold (2 μl of DMSO stock into 98 μl) into Assay Medium. 5 μl of the diluted compounds was transferred to the cell plates. The final top concentration of the test compounds in the cell plates was 20 μM. Cell plates were incubated at 37° C., for 4 hours. Fixation and permeabilization were carried out using a Biotek EL406 plate washer and dispenser as follows. Cells were fixed by addition of 15 μL of 16% paraformaldehyde (Electron Microscopy Sciences #15710-S) directly to the 50 μL cell culture medium in each well using the peristaltic pump 5 μL cassette on a Biotek EL406 (final concentration of formaldehyde was 3.7% w/v). Samples were incubated 30 minutes. Well contents were aspirated and 50 μL/well of Phosphate Buffered Saline (PBS) containing 0.5% w/v bovine serum albumen, 0.5% v/v Triton X-100 (Antibody Dilution Buffer) was added to each well. Samples were incubated for 30 minutes. Well contents were aspirated and washed 3 times with 100 μL/well of PBS.
(§2) For both the PC3 and EOL-1 cell assays, immunofluorescence staining of BRD4 was carried out using a Biotek EL406 plate washer and dispenser as follows. The well supernatant was aspirated from the wells and 25 μL/well of rabbit mAb Anti-BRD4 [EPR5150(2)] abeam 128874 diluted 1:500 in Antibody Dilution Buffer is dispensed. Samples were incubated for 2 hours at room temperature. Samples were washed 4 times with 100 μL/well of PBS. 25 μL/well of secondary antibody solution (Goat Anti-Rabbit IgG, DyLight 488 Conjugated Highly Cross-adsorbed #35553 1:1000) diluted 1:1000 and Hoechst 33342 1 μg/ml diluted in Antibody Dilution Buffer) were dispensed into each well. 16 wells of the plate, which were designated as ‘no primary antibody” wells, received only Antibody Dilution Buffer (without anti-BRD4 antibody). Samples were incubated for 2 hours at room temperature. Samples were washed 3 times with 100 μL/well of PBS using a Biotek EL406. Quantitative fluorescence imaging of BRD4 was carried out using a Phenix (Perkin Elmer). Fluorescence images of the samples (Channel 1: Hoechst33342 (DNA stain); Channel 2: 488 nm (BRD4 stain)) were acquired. Channel 1 (DNA stain) was used to define the “Region of Interest” (ROI) nuclear region. Measurements of BRD4 average immunofluorescence intensity within the ROI (nuclear region), were made on a per cell basis and averaged over all the measured cells. Data analysis was carried out using Genedata Screener Software, with DMSO and “no primary antibody” samples being used to define the 0% and 100% changes in BRD4. The “Robust Fit” method was used to define the inflexion point of curve (EC50) and the plateau of the maximal effect (Sinf). The Sinf value reports degradation as percent change in protein level, so complete loss of the protein target is −100%. […]

The target of assay [2] is T1, BRD4. The assay is described as follows: BRD4 degradation assay in EOL-1 cells, high content fluorescence imaging. In kind it is cell-based. As to conditions: 4 hours; for DC50: BRD4 immunofluorescence, read-out: EOL-1 EC50. On the procedure: as §1
EOL-1 cells: The BRD4 degradation assay was performed on EOL-1 cells using the same procedure as described above for PC3 (Steap-1) prostate cancer cells, except EOL-1 cells were seeded at 1,000,000 cells/mL. Following aspiration and washing of the well contents with 100 μL/well of PBS, 40 μL PBS plus 10% normal goat serum was added per well for 20 minutes at room temperature.
as §2

A value given as a limit tells only on which side of the number the result lay.

Data on 4 molecules can be found in patent publication US11242344B2, “(4-hydroxypyrrolidin-2-yl)-heterocyclic compounds and methods of use thereof” (Genentech, Inc., priority 2017, dated 2022).

For the molecule `Cc1ncsc1-c1ccc([C@]2(C)NC(C3C[C@@H](O)CN3C(=O)C(c3cc(OCCCCCNC(=O)c4cc5c(cc4CS(C)(=O)=O)-c4cn(C)c(=O)c6[nH]cc(c46)CN5c4ncc(F)cc4F)no3)C(C)C)=NC2=O)cc1` (single isomer, unassigned) [Example 1001.2], the DC50 in assay [1] was 3.3 nM; in assay [2], 0.865 nM. In addition, in assay [1], the “PC3 (Steap-1) Sinf (%)” value is −97.2%. Moreover, the “EOL-1 Sinf (%)” value in assay [2] (maximum degradation, percent change in protein level (-100% = complete loss)) is recorded as −96.4%.

Regarding `Cc1ncsc1-c1ccc([C@]2(C)NC(C3C[C@@H](O)CN3C(=O)[C@@H](NC(=O)CCCCCCCCCCNC(=O)c3cc4c(cc3CS(C)(=O)=O)-c3cn(C)c(=O)c5[nH]cc(c35)CN4c3ncc(F)cc3F)C(C)(C)C)=NC2=O)cc1` (single isomer, unassigned) [Example 1005.1], in assay [2], the DC50 was > 20000 nM.

`Cc1ncsc1-c1ccc([C@]2(C)NC(C3C[C@@H](O)CN3C(=O)C(c3cc(OCCCCCNC(=O)c4cc5c(cc4CS(C)(=O)=O)-c4cn(C)c(=O)c6[nH]cc(c46)CN5c4ncc(F)cc4F)no3)C(C)C)=NC2=O)cc1` (single isomer, unassigned) [Example 1001.1]: the DC50 in assay [1] and in assay [2] was > 20000 nM each time.

Consider `Cc1ncsc1-c1ccc([C@]2(C)NC(C3C[C@@H](O)CN3C(=O)C(c3cc(OCCCCCNC(=O)c4cc5c(cc4CS(C)(=O)=O)-c4cn(C)c(=O)c6[nH]cc(c46)CN5c4ncc(F)cc4F)no3)C(C)C)=NC2=O)cc1` (single isomer, unassigned) [Example 1001.3], for which the DC50 was 140 nM in assay [1] and > 20000 nM in assay [2]. Further, in assay [1], the “PC3 (Steap-1) Sinf (%)” value is recorded as −29.0%.
